PMC8039949, “A novel small-molecule PROTAC selectively promotes tau clearance to improve cognitive functions in Alzheimer-like models” (Theranostics, 2021)

What was measured:
[1] = target: T1, MAP2 (Mus musculus, UniProt P20357); assay: MAP2 protein level after intracerebroventricular infusion (specificity); format: in vivo; conditions: 4 m-old wild-type and 9.5 m-old 3xTg-AD mice; intracerebroventricular 5 μL, 200 μM
T1 construct: from tissue; host or cells: hippocampus and cortex of wild-type and 3xTg-AD mice
Method: For brain surgery and stereotaxic cerebroventricular drug delivery, the mice were placed in a stereotaxic apparatus and anesthetized with 2% isoflurane (RWD Life Science, R510-22) through a nose cone (300-500 mL/min, RWD Life Science, China, R500). The scalp was incised along the midline between the ears after the mice were sterilized with iodophors and 75% (vol/vol) alcohol. The holes were drilled stereotaxically in the skull at a cerebroventricular location (posterior 0.22 mm, lateral 0.9 mm, and ventral 2.3 mm relative to bregma). Using a microinjection system (Shenzhen RWD Life Technology Co., Ltd; RWD 69100), C004019 (5 μL, 200 μM) was infused at a rate of 0.5 μL/min. […]
(§1) The cells or hippocampal/cortex tissues were homogenized for ~ 30 min on ice in buffer [50 mM Tris·HCl pH 7.4-7.5, 100 mM NaCl, 1% (vol/vol) Triton X-100, 5 mM EDTA, 1:100 PMSF, 1:1,000 protease inhibitor cocktail containing 4-(2-Aminoethyl)-benzenesulfonyl fluoride hydrochloride, aprotinin, bestatin, leupeptin, E-64, and pepstatin A stored at 4 °C], and then centrifuged at 12,000 × g at 4 °C for 20 min. The supernatant was collected and the protein levels were analyzed using bicinchoninic acid (BCA, KF016, Sigma-Aldrich) by following the manufacturer's instruction (served as soluble protein). […] Immunoreactive bands were quantitatively analyzed by Image J2x software.

[2] = target: T2, tau (UniProt P10636+P40338, P618L); assay: Multiple-doses subcutaneous administration in 3xTg-AD mice, brain tau; format: in vivo, mouse; conditions: 9.5 m-old 3xTg-AD mice, subcutaneous 3 mg/kg every 6 days, 5 times
T2 construct: tissue stock number 34830; host or cells: hippocampus and cortex of 9.5 m-old 3xTg-AD mice
Method: For brain surgery and stereotaxic cerebroventricular drug delivery, the mice were placed in a stereotaxic apparatus and anesthetized with 2% isoflurane (RWD Life Science, R510-22) through a nose cone (300-500 mL/min, RWD Life Science, China, R500). The scalp was incised along the midline between the ears after the mice were sterilized with iodophors and 75% (vol/vol) alcohol. The holes were drilled stereotaxically in the skull at a cerebroventricular location (posterior 0.22 mm, lateral 0.9 mm, and ventral 2.3 mm relative to bregma). Using a microinjection system (Shenzhen RWD Life Technology Co., Ltd; RWD 69100), C004019 (5 μL, 200 μM) was infused at a rate of 0.5 μL/min. The needle was kept in place for 10 min before withdrawal. After the skin was sutured, the mice were placed on a heater for analepsia. For subcutaneous injection, C004019 was diluted with 20% HP-β-CD and injected under the skin on the back neck to reach a final concentration of 3 mg/kg (low dose) or 15 mg/kg (high dose).
as §1, with “protein). The pellet was further incubated with 8% (wt/vol) SDS buffer at 4 °C and then treated by ultrasonic wave to reach a complete resuspension. The suspension was spun (18,000 × g, 4 °C for 20 min) and the supernatant collected (served as insoluble fraction). The supernatant of different faction was respectively mixed with loading buffer (3:1, vol/vol) containing 200 mM Tris-HCl, pH 6.8, 8% SDS, 40% glycerol, and boiled for 10 min.” for “protein).”, “software. […]” for “software.”

[3] = test system: tau; assay: Tau clearance in SH-SY5Y cells by Western blotting; format: cell-based, human
Method: (§2) SH-SY5Y human neuroblastoma cells were cultured in 90% DME/F-12 medium (HyClone, SH30023.01) with 10% fetal bovine serum (FBS) (Biological Industries, 04-001-1ACS) and penicillin (100 U/mL)/ streptomycin (100 μg/mL) in a 37 °C incubator with humidified atmosphere of 5% CO2. Human embryonic kidney 293 cells (HEK293) or HEK293 with stable expression of wild-type full-length human tau (termed as HEK293-hTau) were cultured in 90% DMEM/High Glucose medium (HyClone, SH30022.01) containing 10% FBS and 200 μg/mL G418 (ThermoFisher Scientific, 10131027), in a humidified atmosphere of 5% CO2 at 37 °C. Neofect (DNA transfection reagent, TF20121201) was used for plasmids transfection. The cells were placed onto 6-well or 12-well plates. Plasmids (EGFP-hTau or 3xFlag-hTau or the vector), neofect and Opti-MEM medium (Gibco, 31985-070) were made into a mixture in a ratio of 1 μg: 1 μL : 100 μL and then added into each well of the plate. To inhibit proteasome activity, HEK293-hTau cells were cultured with DMEM/High medium containing 20 μM C004019 with or without 10 μM MG132, or the same volume of vehicle (DMSO) for 24 h at 37 °C. To induce tau hyperphosphorylation, SH-SY5Y cells were cultured with DME/F-12 medium containing 10 μM C004019 with or without 1 μM GFX and 1 μM WO for 24 h at 37 °C.
as §1, with “protein). The pellet was further incubated with 8% (wt/vol) SDS buffer at 4 °C and then treated by ultrasonic wave to reach a complete resuspension.” for “protein).”

[4] = target: T3, human tau (hTau) (Homo sapiens, UniProt P10636); assay: Tau clearance in HEK293-hTau cells by Western blotting; format: cell-based
T3 construct: expressed in transfected cells
Method: as §2
as §1, with “protein). The pellet was further incubated with 8% (wt/vol) SDS buffer at 4 °C and then treated by ultrasonic wave to reach a complete resuspension.” for “protein).”

T2 sequence (P10636 1-383 isoform P10636-6 P243L): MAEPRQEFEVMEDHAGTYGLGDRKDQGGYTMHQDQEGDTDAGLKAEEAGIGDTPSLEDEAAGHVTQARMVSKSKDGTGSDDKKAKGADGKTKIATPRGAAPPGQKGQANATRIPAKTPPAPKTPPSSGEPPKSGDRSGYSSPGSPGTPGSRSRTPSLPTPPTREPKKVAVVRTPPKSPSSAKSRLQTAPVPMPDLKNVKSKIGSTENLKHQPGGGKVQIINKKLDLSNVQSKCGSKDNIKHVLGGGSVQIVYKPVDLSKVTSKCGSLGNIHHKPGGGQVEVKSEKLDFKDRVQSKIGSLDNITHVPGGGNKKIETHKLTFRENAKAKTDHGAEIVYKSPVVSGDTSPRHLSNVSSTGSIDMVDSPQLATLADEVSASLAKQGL
T2 sequence (P40338 whole entry): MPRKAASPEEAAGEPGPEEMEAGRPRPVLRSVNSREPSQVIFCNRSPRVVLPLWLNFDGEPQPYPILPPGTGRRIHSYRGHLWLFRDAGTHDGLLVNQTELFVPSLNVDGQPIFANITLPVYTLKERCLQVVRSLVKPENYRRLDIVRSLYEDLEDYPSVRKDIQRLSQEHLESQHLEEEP
T2 sequence (P83940 whole entry partner): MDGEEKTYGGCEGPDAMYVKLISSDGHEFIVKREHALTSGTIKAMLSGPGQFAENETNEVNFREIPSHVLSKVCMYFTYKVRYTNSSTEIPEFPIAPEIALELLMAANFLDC
T2 sequence (P62869 whole entry partner): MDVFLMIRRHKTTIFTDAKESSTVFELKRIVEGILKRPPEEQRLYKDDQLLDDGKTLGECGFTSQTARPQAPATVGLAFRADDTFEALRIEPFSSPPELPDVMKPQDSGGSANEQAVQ
T3 sequence (P10636 1-441 isoform P10636-8): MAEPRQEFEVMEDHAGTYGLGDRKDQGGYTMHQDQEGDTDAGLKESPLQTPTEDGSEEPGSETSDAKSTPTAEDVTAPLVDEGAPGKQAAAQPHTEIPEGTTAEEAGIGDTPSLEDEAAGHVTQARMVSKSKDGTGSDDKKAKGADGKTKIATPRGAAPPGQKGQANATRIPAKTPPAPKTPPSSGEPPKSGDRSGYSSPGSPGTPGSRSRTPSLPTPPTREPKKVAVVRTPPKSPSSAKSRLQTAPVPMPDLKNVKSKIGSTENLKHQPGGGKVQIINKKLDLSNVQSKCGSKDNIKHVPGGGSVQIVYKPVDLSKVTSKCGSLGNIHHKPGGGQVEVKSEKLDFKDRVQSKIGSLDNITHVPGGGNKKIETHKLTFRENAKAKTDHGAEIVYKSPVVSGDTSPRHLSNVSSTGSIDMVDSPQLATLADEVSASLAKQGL
T1 sequence (P20357 whole entry, the tested form may be a part): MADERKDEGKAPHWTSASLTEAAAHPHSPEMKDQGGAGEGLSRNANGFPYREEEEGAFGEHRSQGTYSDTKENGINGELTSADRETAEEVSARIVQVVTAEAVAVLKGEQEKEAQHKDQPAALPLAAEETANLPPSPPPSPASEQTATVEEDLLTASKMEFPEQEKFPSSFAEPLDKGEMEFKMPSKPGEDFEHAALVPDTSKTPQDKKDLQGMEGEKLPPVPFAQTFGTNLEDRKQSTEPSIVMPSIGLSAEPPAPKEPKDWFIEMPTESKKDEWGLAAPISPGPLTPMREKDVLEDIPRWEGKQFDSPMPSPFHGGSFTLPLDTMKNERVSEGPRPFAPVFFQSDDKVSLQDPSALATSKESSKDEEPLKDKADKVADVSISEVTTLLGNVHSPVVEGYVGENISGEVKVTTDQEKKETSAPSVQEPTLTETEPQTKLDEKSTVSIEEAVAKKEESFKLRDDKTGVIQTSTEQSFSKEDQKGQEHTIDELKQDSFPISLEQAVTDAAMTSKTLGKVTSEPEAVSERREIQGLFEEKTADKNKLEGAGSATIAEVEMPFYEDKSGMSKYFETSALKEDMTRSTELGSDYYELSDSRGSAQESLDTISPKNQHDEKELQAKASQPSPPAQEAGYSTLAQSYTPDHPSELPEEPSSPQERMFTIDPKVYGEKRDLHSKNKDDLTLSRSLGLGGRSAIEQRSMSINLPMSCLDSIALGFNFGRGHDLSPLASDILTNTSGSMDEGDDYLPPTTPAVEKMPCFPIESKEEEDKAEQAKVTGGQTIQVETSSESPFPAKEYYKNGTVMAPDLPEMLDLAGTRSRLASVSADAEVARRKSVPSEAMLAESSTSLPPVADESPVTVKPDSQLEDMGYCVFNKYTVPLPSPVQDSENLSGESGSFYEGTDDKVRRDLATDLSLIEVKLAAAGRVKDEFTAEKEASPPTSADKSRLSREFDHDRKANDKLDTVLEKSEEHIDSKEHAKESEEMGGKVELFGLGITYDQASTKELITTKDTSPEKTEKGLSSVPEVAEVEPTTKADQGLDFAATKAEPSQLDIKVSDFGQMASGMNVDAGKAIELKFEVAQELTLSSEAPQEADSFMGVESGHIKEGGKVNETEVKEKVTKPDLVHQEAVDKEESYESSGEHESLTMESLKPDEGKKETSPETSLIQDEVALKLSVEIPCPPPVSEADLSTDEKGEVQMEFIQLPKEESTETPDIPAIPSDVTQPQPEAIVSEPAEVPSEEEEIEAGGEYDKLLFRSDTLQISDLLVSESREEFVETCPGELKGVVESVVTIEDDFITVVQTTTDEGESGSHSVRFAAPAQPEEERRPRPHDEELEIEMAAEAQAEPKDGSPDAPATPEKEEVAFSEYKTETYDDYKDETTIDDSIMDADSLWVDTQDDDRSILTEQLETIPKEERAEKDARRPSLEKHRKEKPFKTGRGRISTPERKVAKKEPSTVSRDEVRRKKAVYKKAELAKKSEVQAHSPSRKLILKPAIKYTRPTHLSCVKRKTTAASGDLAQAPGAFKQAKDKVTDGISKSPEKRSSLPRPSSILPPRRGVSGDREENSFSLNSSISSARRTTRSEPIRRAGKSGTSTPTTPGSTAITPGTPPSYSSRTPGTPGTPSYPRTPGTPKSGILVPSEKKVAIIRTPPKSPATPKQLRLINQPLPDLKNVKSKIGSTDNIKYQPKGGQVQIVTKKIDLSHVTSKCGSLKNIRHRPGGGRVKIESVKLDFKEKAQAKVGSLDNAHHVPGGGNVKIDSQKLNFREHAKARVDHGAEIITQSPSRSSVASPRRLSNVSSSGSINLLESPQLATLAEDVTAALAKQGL

CC(=O)N1CCCN(c2nc(NCCc3cccs3)nc(N(C)CC(=O)NCCOCCOCCOCC(=O)N[C@H](C(=O)N3C[C@H](O)C[C@H]3C(=O)NCc3ccc(-c4scnc4C)cc3)C(C)(C)C)n2)CC1 [C004019]
protein level of MAP2 [1]: did not change the level of MAP2 | p-tau and aggregated tau (pS404, AT8 immunohistochemistry, Thioflavin S staining) [2]: Reduction of p-tau and aggregated tau proteins | oligomer tau (T22-positive) in the soluble fraction ([2]; Western blotting): significantly reduced T22-positive tau | soluble and insoluble tau levels in hippocampal and cortex extracts ([2]; Western blotting): remarkably reduced both soluble and insoluble tau levels | p-tau and total tau levels under induced tau hyperphosphorylation ([3]; 10 μM C004019 with WO (1 μM) plus GFX (1 μM), 24 h): could efficiently decrease p-tau and total tau levels | phosphorylated tau level ([3]; 20 μM): could decrease phosphorylated tau | total tau (Tau5) and p-tau level ([3]; Western blotting): concentration-dependent reduction | total tau (Tau5) and p-tau level ([4]; HEK293-hTau cells, Western blotting): concentration-dependent reduction | DC50 ([4]; cultured cells, read-out: DC50 (tau degrader)): ~5 nM
